Laboratory results from US20120040951A1, “HETEROARYL COMPOUNDS USEFUL AS RAF KINASE INHIBITORS” (priority 2008, published 2012).

Test system: phospho-ERK in melanoma derived WM-266-4 cells
Assay: Mechanistic cellular assay for Raf kinase activity (phospho-ERK, Bio-Plex)
Type: cell-based
Details: Homo sapiens, treated 1-2 hr at 37° C., serum free medium, read-out: pERK EC50
Text: (2) Mechanistic Cellular Assay for Raf Kinase Activity
The following method was utilized for quantifying the amount of phospho-ERK in melanoma derived WM-266-4 cells (one allele each of wild type BRaf and mutant BRaf (V600D) as an indicator of Raf kinase activity in cells treated with various kinase inhibitors.
(1) Detached adhered WM-266-4 cells from flask using 0.25% Trypsin. Resuspended cells in growth media (90% RPMI 1640, 10% FBS) and determine cell density.
(2) Seeded cells @ 10,000 cells/well in 96-well (flat bottom) tissue culture plates (36,000 cells/cm^2). Added growth media to a final volume of 200 uL/well and incubated overnight at 37° C.
(1) Prepared compound dilutions (1000× in DMSO) as follows. Starting with a stock of 5 mM compound in DMSO, diluted serially 3-fold in DMSO for a total of eight concentrations (5 mM, 1.67 mM, 0.556 mM, 0.185 mM, 0.062 mM, 0.021 mM, 0.007 mM, 0.002 mM).
(2) Prepared compound-containing media by adding 1 mL treatment media (100% RPMI 1640 without FBS) to 1 μL of compound dilution (from step 3).
(3) Removed plates (from step 2) from incubator. Aspirated media and replace with 150 μL compound-containing media. Incubate for 1-2 hr at 37° C.
(4) Removed plates (from step 5) from incubator and treated each as follows: aspirated compound-containing media and replaced with 300 μL ice-cold 1×PBS, aspirated PBS and replaced with 45 μL lysis buffer (Biorad Bio-Plex lysis buffer containing 0.4% v/v lysis buff. Factor 1, 0.2% v/v lysis buff. Factor 2, and PMSF to 2 mM final concentration), and then placed plate on ice until all plates were treated.
(5) After all plates were processed (step 6), placed plates on an orbital shaker and shook at room temperature for at least 15 min.
(6) Finally, removed plates from shaker, and transfered 40 μL/well of lysate from each to new corresponding 96-well V-bottom plates. At this point, samples may be frozen and stored @−80 C.°.
(1) Thaw (if necessary) plates (from step 8) and added 40 μL of Phospho-Protein Assay Buffer to each 40 μL lysate for a 1:1 dilution.
(2) Prepared phospho-ERK1,2 Bioplex beads by diluting 1:50 with Bioplex Wash Buffer (mixing 49 μL Wash Buffer with 1 μL of phospho-ERK1,2 Bioplex beads for each sample to be analyzed). Protected from light by wrapping tube in aluminum foil and kept at room temperature.
(3) Prepared Filter Plate by adding 100 μL/well Bioplex Wash Buffer and removed by vacuum filtration.
(4) Add 50 μL of bead solution (from step 10) to each well of a prepared Filter Plate (from step 11) and vacuum filter. Wash/filter 2× with 100 μL/well Wash Buffer.
(5) Added 50 μL of each lysate to appropriate well of the Filter Plate (from step 12). For this and all subsequent plate incubation steps, placed plate on an inverted plate cover (reduces background), and wrapped in aluminum foil (to protect from light). Shook overnight at room temperature. Included positive (control lysate) and negative (lysis buffer) controls.
(1) Prepared detection antibody (phospho-ERK1,2 Ab) by diluting 1:25 with Detection Antibody Dilution Buffer Buffer (mixing 24 μL Detection Antibody Dilution Buffer with 1 μL of phospho-ERK1,2 Ab for each sample to be analyzed).
(2) Removed plate (from step 13) from shaker and vacuum filter. Washed/filter plate 3× with 100 μL/well Wash Buffer. Added 25 μL of diluted antibody to each well. Incubated on shaker at RT for 30-45 min.
(3) Prepared streptavidin-PE by diluting 1:100 with Wash Buffer (mixing 49.5 μL Wash Buffer with 0.5 μL of 100× streptavidin-PE for each sample to be analyzed). Protected from light.
(4) Removed plate (from step 15) from shaker and vacuum filter. Washed/filter plate 3× with 100 μL/well Wash Buffer. Add 50 μL of diluted streptavidin-PE solution (from step 16) to each sample well. Incubated on shaker for 10-20 min.
(5) Removed plate from shaker and vacuum filter. Wash/filter plate 3× with 100 μL/well Bead Resuspension Buffer. After last wash resuspended beads in 125 μL Bead Resuspension Buffer. […]

Structure (SMILES) | EC50
C[C@@H](NC(=O)c1ccc2nc(N)sc2c1)c1ncc(C(=O)Nc2cc(C(F)(F)F)c(Cl)cn2)s1 [Example 59] | ≤ 100 nM
Cc1ccc2cc(C(=O)N[C@H](C)c3ncc(C(=O)Nc4cc(C(F)(F)F)c(Cl)cn4)s3)ccc2n1 [Example 60] | 100 to 1000 nM
C[C@@H](NC(=O)c1ccc2ncsc2c1)c1ncc(C(=O)Nc2cc(C(F)(F)F)c(Cl)cn2)s1 [Example 61] | ≤ 100 nM
C[C@@H](NC(=O)c1ccc2nccnc2c1)c1ncc(C(=O)Nc2cc(C(F)(F)F)c(Cl)cn2)s1 [Example 63] | ≤ 100 nM
C[C@@H](NC(=O)c1ccc2c(c1)NC(=O)CO2)c1ncc(C(=O)Nc2cc(C(F)(F)F)c(Cl)cn2)s1 [Example 66] | ≤ 100 nM
C[C@@H](NC(=O)c1ccc2c(ccn2C)c1)c1ncc(C(=O)Nc2cc(C(F)(F)F)c(Cl)cn2)s1 [Example 69] | 1000 to 10000 nM
C[C@@H](NC(=O)c1ccc2c(c1)OCCO2)c1ncc(C(=O)Nc2cc(C(F)(F)F)c(Cl)cn2)s1 [Example 70] | 100 to 1000 nM
CC(C)Cn1cnc2cnc(C(=O)NC(C)c3cnc(Nc4ccc(C(F)(F)F)cc4)cn3)cc21 (stereo not shown) [Example 79] | 100 to 1000 nM
CC(NC(=O)c1cc2c(cn1)ncn2C(C)C)c1cnc(Nc2ccc(C(F)(F)F)cc2)cn1 (stereo not shown) [Example 80] | 100 to 1000 nM
C[C@@H](NC(=O)c1cnc2[nH]ccc2c1)c1ncc(C(=O)Nc2cc(C(F)(F)F)c(Cl)cn2)s1 [Example 81] | ≤ 100 nM
CC(NC(=O)c1cnn2c1CCCC2)c1cnc(Nc2ccc(C(F)(F)F)cc2)s1 (stereo not shown) [Example 83] | ≤ 100 nM
CC(NC(=O)c1cnn2c1CCCC2)c1ncc(C(=O)Nc2cc(C(F)(F)F)c(Cl)cn2)s1 (stereo not shown) [Example 84] | ≤ 100 nM
C[C@@H](NC(=O)c1cnn2c1CCCC2)c1ncc(C(=O)Nc2cc(C(F)(F)F)c(Cl)cn2)s1 [Example 85] | ≤ 100 nM
CC(NC(=O)c1cccc(N2CCOCC2)n1)c1ncc(C(=O)Nc2cc(C(F)(F)F)c(Cl)cn2)s1 (stereo not shown) [Example 88] | 100 to 1000 nM
Cc1nc(-c2cnccn2)sc1C(=O)N[C@H](C)c1ncc(C(=O)Nc2cc(C(F)(F)F)c(Cl)cn2)s1 [Example 100] | 1000 to 10000 nM
C[C@@H](NC(=O)c1cnc(N)s1)c1ncc(C(=O)Nc2cc(C(F)(F)F)c(Cl)cn2)s1 [Example 102] | ≤ 100 nM
CNc1ncc(C(=O)N[C@H](C)c2ncc(C(=O)Nc3cc(C(F)(F)F)c(Cl)cn3)s2)s1 [Example 104] | 100 to 1000 nM
C[C@@H](NC(=O)c1cnc(NCCN2CCCC2)s1)c1ncc(C(=O)Nc2cc(C(F)(F)F)c(Cl)cn2)s1 [Example 105] | 100 to 1000 nM
C[C@@H](NC(=O)c1cn[nH]c1)c1ncc(C(=O)Nc2cc(C(F)(F)F)c(Cl)cn2)s1 [Example 112] | 100 to 1000 nM
Cc1[nH]ncc1C(=O)N[C@H](C)c1ncc(C(=O)Nc2cc(C(F)(F)F)c(Cl)cn2)s1 [Example 113] | 100 to 1000 nM
Cc1c(C(=O)N[C@H](C)c2ncc(C(=O)Nc3cc(C(F)(F)F)c(Cl)cn3)s2)cnn1-c1ccccc1 [Example 114] | 1000 to 10000 nM
Cc1c(C(=O)N[C@H](C)c2ncc(C(=O)Nc3cc(C(F)(F)F)c(Cl)cn3)s2)cnn1C [Example 115] | ≤ 100 nM
C[C@@H](NC(=O)c1cnn(-c2cccnc2)c1)c1ncc(C(=O)Nc2cc(C(F)(F)F)c(Cl)cn2)s1 [Example 116] | 100 to 1000 nM
C[C@@H](NC(=O)c1cnn(-c2ccccc2)c1)c1ncc(C(=O)Nc2cc(C(F)(F)F)c(Cl)cn2)s1 [Example 117] | 1000 to 10000 nM
C[C@@H](NC(=O)c1cnn(-c2ccncc2)c1)c1ncc(C(=O)Nc2cc(C(F)(F)F)c(Cl)cn2)s1 [Example 120] | 100 to 1000 nM
CCCn1ncc(C(=O)N[C@H](C)c2ncc(C(=O)Nc3cc(C(F)(F)F)c(Cl)cn3)s2)c1C [Example 122] | 100 to 1000 nM

Structure (SMILES) | EC50
C[C@@H](NC(=O)c1cnn(C)c1Cl)c1ncc(C(=O)Nc2cc(C(F)(F)F)c(Cl)cn2)s1 [Example 124] | ≤ 100 nM
C[C@@H](NC(=O)c1cnc2ccccn12)c1ncc(C(=O)Nc2cc(C(F)(F)F)c(Cl)cn2)s1 [Example 135] | ≤ 100 nM
C[C@@H](NC(=O)c1cnc2ncccn12)c1ncc(C(=O)Nc2cc(C(F)(F)F)c(Cl)cn2)s1 [Example 137] | 100 to 1000 nM
C[C@@H](NC(=O)c1cncn1C)c1ncc(C(=O)Nc2cc(C(F)(F)F)c(Cl)cn2)s1 [Example 141] | 100 to 1000 nM
C[C@@H](NC(=O)c1c[nH]cn1)c1ncc(C(=O)Nc2cc(C(F)(F)F)c(Cl)cn2)s1 [Example 142] | 1000 to 10000 nM
C[C@@H](NC(=O)c1cn(C)cn1)c1ncc(C(=O)Nc2cc(C(F)(F)F)c(Cl)cn2)s1 [Example 143] | 1000 to 10000 nM
C[C@@H](NC(=O)c1cncn1-c1ccccc1)c1ncc(C(=O)Nc2cc(C(F)(F)F)c(Cl)cn2)s1 [Example 144] | 100 to 1000 nM
CCn1cncc1C(=O)N[C@H](C)c1ncc(C(=O)Nc2cc(C(F)(F)F)c(Cl)cn2)s1 [Example 145] | 100 to 1000 nM
Cc1ncc(C(=O)N[C@H](C)c2ncc(C(=O)Nc3cc(C(F)(F)F)c(Cl)cn3)s2)n1C [Example 146] | ≤ 100 nM
C[C@@H](NC(=O)c1cnc(N)n1C)c1ncc(C(=O)Nc2cc(C(F)(F)F)c(Cl)cn2)s1 [Example 147] | ≤ 100 nM
CCn1c(C(=O)N[C@H](C)c2ncc(C(=O)Nc3cc(C(F)(F)F)c(Cl)cn3)s2)cnc1N [Example 149] | ≤ 100 nM
CCn1c(C(=O)N[C@H](C)c2ncc(C(=O)Nc3cc(C(F)(F)F)c(Cl)cn3)s2)cnc1C [Example 151] | ≤ 100 nM
COCCn1c(C(=O)N[C@H](C)c2ncc(C(=O)Nc3cc(C(F)(F)F)c(Cl)cn3)s2)cnc1C [Example 152] | ≤ 100 nM
C[C@@H](NC(=O)c1cnc(N)n1C1CC1)c1ncc(C(=O)Nc2cc(C(F)(F)F)c(Cl)cn2)s1 [Example 154] | 100 to 1000 nM
COc1ncc(C(=O)N[C@H](C)c2ncc(C(=O)Nc3cc(C(F)(F)F)c(Cl)cn3)s2)n1C [Example 157] | 1000 to 10000 nM
Cc1ncc(C(=O)N[C@H](C)c2ncc(C(=O)Nc3cc(C(F)(F)F)c(Cl)cn3)s2)n1C(C)C [Example 158] | ≤ 100 nM
Cc1ncc(C(=O)NC(C)c2ncc(C(=O)Nc3cc(C(F)(F)F)c(Cl)cn3)s2)n1-c1ccncc1 (stereo not shown) [Example 159] | ≤ 100 nM
CNc1ncc(C(=O)N[C@H](C)c2ncc(C(=O)Nc3cc(C(F)(F)F)c(Cl)cn3)s2)n1C [Example 160] | 1000 to 10000 nM
Cc1ncc(C(=O)N[C@H](C)c2ncc(C(=O)Nc3cc(C(F)(F)F)c(Cl)cn3)s2)n1-c1ccccn1 [Example 161] | 100 to 1000 nM
Cc1ncc(C(=O)N[C@H](C)c2ncc(C(=O)Nc3cc(C(F)(F)F)c(Cl)cn3)s2)n1-c1cccnc1 [Example 162] | ≤ 100 nM
CCc1ncc(C(=O)N[C@H](C)c2ncc(C(=O)Nc3cc(C(F)(F)F)c(Cl)cn3)s2)n1CC [Example 163] | 100 to 1000 nM
CCn1c(C(=O)NC(C)c2ncc(C(=O)Nc3cc(C(F)(F)F)c(Cl)cn3)s2)cnc1C (stereo not shown) [Example 164] | 100 to 1000 nM
C[C@@H](NC(=O)c1cnc2sccn12)c1ncc(C(=O)Nc2cc(C(F)(F)F)c(Cl)cn2)s1 [Example 165] | 100 to 1000 nM
C[C@@H](NC(=O)c1cnc2n1CCCN2)c1ncc(C(=O)Nc2cc(C(F)(F)F)c(Cl)cn2)s1 [Example 166] | ≤ 100 nM
C[C@@H](NC(=O)c1cnc2n1CCCCC2)c1ncc(C(=O)Nc2cc(C(F)(F)F)c(Cl)cn2)s1 [Example 168] | ≤ 100 nM
C[C@@H](NC(=O)c1cnc2n1CCN2)c1ncc(C(=O)Nc2cc(C(F)(F)F)c(Cl)cn2)s1 [Example 169] | ≤ 100 nM
